Series [1] concerns VZV gE. Kind of series: IFN-γ ELISpot of gE peptide-stimulated splenocytes from LAV-experienced C57BL/6 mice. Format: in vivo. Conditions: Day 48 (13 days post dose 1), 1 μg IM Day 35. On the procedure:
VZV RNA-LNP vaccines were tested for their ability to induce IgG and T cell responses in C57BL/6 mice. 15 mice per group were immunized in accordance with the schedule and specification in Table 11. Briefly, 10 or 15 mice per group were primed subcutaneously (SQ) on Day 0 with a live-attenuated varicella (LAV) vaccine (VARIVAX®, Merck) using a full human dose per mouse (1350 pfu), immunized intramuscularly (IM) on Day 35 day and boosted on Day 63. The “infection” with a LAV vaccine mimics exposure to VZV that humans receive when infected with VZV as children and develop chickenpox. […]
Vaccine-induced T cell response was measured following ex vivo stimulation of splenocytes with gE peptide pool (2 μg/mL of each peptide) by ELISpot and Intracellular Cytokine Staining (ICS) assay (described herein). […] T cell IFN-γ response was measured using Mabtech Mouse IFN-γ ELISpot PLUS kit (ALP) and expressed as spot forming cells (SFC) per million cells. The ICS assay measured IFN-γ-expressing cells within CD4^+ and CD8^+ T cells expressed as percentage of IFN-γ^+ cells within CD4^+ and CD8^+ T cells. […]

Series [2] deals with VZV gE. Kind of series: Frequency of gE-specific IgG+ B cells in splenocytes of LAV-experienced C57BL/6 mice (flow cytometry). Conditions: percentage of IgG-expressing B cells. Format: in vivo. On the procedure: VZV RNA-LNP vaccines were tested for their ability to induce IgG and T cell responses in C57BL/6 mice. 15 mice per group were immunized in accordance with the schedule and specification in Table 11. Briefly, 10 or 15 mice per group were primed subcutaneously (SQ) on Day 0 with a live-attenuated varicella (LAV) vaccine (VARIVAX®, Merck) using a full human dose per mouse (1350 pfu), immunized intramuscularly (IM) on Day 35 day and boosted on Day 63. The “infection” with a LAV vaccine mimics exposure to VZV that humans receive when infected with VZV as children and develop chickenpox.
Mice immunized with SHINGRIX® received 1, 2.5, or 5 μg, corresponding to 1/50, 1/20, and 1/10 of the human clinical dose, respectively; mice immunized with gE_WT CO2 received 0.5 or 1 μg VZV RNA-LNP; mice immunized with ms5 CO1 received 0.5 or 1 ug VZV RNA-LNP; mice immunized with ms6 CO2 received 0.5 or 1 ug VZV RNA-LNP; and mice immunized with lyophilized gE_WT CO2 received 0.5 or 1 ug VZV RNA-LNP. Saline was administered on Day 35 and 63 to a negative control group. Sera was collected from mice on Day 35, 63 and 76 for characterization of VZV gE-binding IgG levels (LUMINEX® analyses). Spleens were harvested on Day 48 (13 days post dose 1 for selected groups) and Day 76 for cellular analysis (T cell and B cell responses).
Vaccine-induced B cell response was evaluated by measuring the frequencies of VZV gE-specific B cells in the spleen. Wild type gE protein ectodomain with streptag was coupled to streptavidin (SA)-fluorochromes PE and APC, both from BioLegend in the ratio of 2:1 in separate tubes for 1 hour at room temperature (RT) at 20× of desired staining concentration (10 μg/mL for each protein). Each of the SA-fluorochrome-coupled spike proteins were pooled and diluted to 1× using flow cytometry (FC) buffer (2% FBS/PBS) to generate B-cell probes to identify gE-specific B cells. Single cell suspensions of splenocytes (5×10^6 cells per well) were first washed in PBS and stained with eFluor 506 Fixable Viability dye for 10 minutes at RT to identify live from dead cells. Following washes in FC buffer, cells were incubated with 50 μL/well of 1×B-cell probe for 30 to 45 minutes and then washed to remove unbound probes. Cells were surface stained with a cocktail of flow cytometry antibodies (CD19, IgD, IgM, IgD, All from BioLegend) to identify B cell surface phenotypes. Following washing, cells were fixed using BD Fixation buffer and suspended in FC buffer. Cells were acquired on LSR Fortessa and data analyzed by FlowJo (10.7.1). The results of gE-specific B cells were expressed as the percentage of IgG-expressing B cells.
(In general: Flow cytometry measures light scatter and fluorescence of single cells or particles in a stream.)

The next series deals with Vero cells. Description: VZV gE expression and subcellular localization in Vero cells transfected with VZV RNA constructs (imaging). To be noted: Table 8; VZV gE RNA, see Example 2. Format: cell-based, African green monkeys. On the procedure: Expression of VZV RNA constructs were tested in transfected Vero cells, a kidney epithelial cell culture line derived from African green monkeys. Seeded Vero cells were transfected for 24 hours at 37° C., 5% CO2 with 10 ng, 25 ng, or 50 ng of RNA constructs (Table 5) using MESSENGERMAX™ in accordance with the manufacturer's instructions. Cells were washed three times with PBS+Ca/Mg, and fixed in 4% paraformaldehyde (PFA) for 20 minutes at 25° C. Cells were washed twice with 3% bovine serum albumin (BSA) in PBS+Ca/Mg. Primary and secondary staining antibodies were diluted in 0.1% saponin in goat serum. Cells were stained with a 1:1000 dilution of primary antibody for 1 hour at 37° C., washed three times with PBS+Ca/Mg, and incubated with secondary antibody (1:500) and CELLMASK™ (1:140,000) for 45 minutes at 37° C. Cells were then stained with Dapi (1:15,000-1:20,000) for 15 minutes at 25° C., and washed three times with PBS+Ca/Mg. Cells were analyzed for VZV gE expression and subcellular localization using an Opera PHENIX® Plus High-Content Screening System at 10× or 63× magnification.

Series [3] relates to human embryonic kidney (HEK) 293T cells. Description: In vitro expression (IVE) of VZV RNA-LNP vaccines in HEK 293T cells (FACS). Format: cell-based. Conditions: for VZV RNA-LNPs (293T cells) MFI: Table 8; for VZV RNA-LNPs (293T cells) EC50 (ng/well): Table 8, FIG. 15, input RNA vs percentage of gE-expressing cells, 24 hours. The procedure:
In vitro expression (IVE) analyses were conducted to assess the potency of VZV RNA-LNP vaccines. RNA constructs were formulated into LNPs as previously described in Example 3, and a range of input VZV RNA-LNP quantities was transfected into human embryonic kidney (HEK) 293T cells for 24 hours at 37° C., 5% CO2. Transfected cells were washed with DPBS, detached from plate wells using ACCUTASE®, and rinsed with cold PBS. Cells were subjected to live/dead staining, fixation, and permeabilization prior to FACS staining. Fixed and permeabilized cells were incubated with an anti-gE primary antibody (1:1000) for 45 minutes at 2-8° C., washed twice with BD PERM/WASH™ buffer and incubated with a goat anti-human kappa-PE secondary antibody (1:1000) for 30 minutes at 2-8° C. Cells were washed twice with BD PERM/WASH™ buffer, resuspended in 1×FACS buffer, and analyzed on a BD LSRII to determine the proportion of cells expressing VZV gE for each VZV RNA-LNP input. A titration curve was created whereby input RNA quantities were plotted against the percentage of gE-expressing cells to determine the EC50 of each VZV RNA-LNP vaccine.

Setting [4] is: Day 48 (13 days post dose 1), 1 μg IM Day 35.
Where [5] appears, read: Day 76 (13 days post dose 2/boost), 1 μg IM Days 35 and 63.

In the case of “ms5 CO1: modRNA construct, ORF SEQ ID NO: 153, VZV gE with deletion of aa 582-623”, the “gE-specific IFN-γ+ cells (ELISpot)” value in the series on VZV gE [1] is 1068 SFC per million cells. For the same substance, the “gE-specific IgG+ B cells” value with VZV gE [2] (setting [4]) is given as 4.14%. In addition, the “gE-specific IgG+ B cells” value in the series on VZV gE [2] (setting [5]) is reported as 2.19%. Moreover, the “VZV RNA (Vero cells) MFI” value in the series on Vero cells is given as 1368. In addition, in series [3], the “VZV RNA-LNPs (293T cells) MFI” value is listed as 543 and the “VZV RNA-LNPs (293T cells) EC50 (ng/well)” value came out at 14 ng/well.
As for “ms6 CO2: modRNA construct, ORF SEQ ID NO: 157, VZV gE with deletion of aa 539-623, secreted”, in the series with VZV gE [1], the “gE-specific IFN-γ+ cells (ELISpot)” value turned out to be 150 SFC per million cells. For the same substance, in the series with VZV gE [2] (setting [4]), the “gE-specific IgG+ B cells” value worked out at 1.85%. In the series with VZV gE [2] (setting [5]), the “gE-specific IgG+ B cells” value was found to be 1.38%. Also, the “VZV RNA (Vero cells) MFI” value in the series with Vero cells was found to be 458. In series [3], the “VZV RNA-LNPs (293T cells) MFI” value turned out to be 162 and the “VZV RNA-LNPs (293T cells) EC50 (ng/well)” value turned out to be 220 ng/well.

The values are drawn from patent US20230233671A1, “RNA MOLECULES” (Pfizer Inc., priority 2021, published 2023).
